Like-named read-outs stand apart in the source and are kept apart here. Where no end group is shown, it is not given here.
Tests used:
Format in all cases: cell-based
P. acnes = tested on: P. acnes
Description: (§1) Broth Dilution Antibacterial Susceptibility Testing
(§2) The sensitivity of relevant bacterial strains to the peptides (was determined using Clinical Laboratory Standard Institute (CLSI; formerly NCCLS) Approved Standards. Bacterial susceptibility was tested using “Methods for Dilution Antimicrobial Susceptibility Tests for Bacteria That Grow […]; Approved Standard—Seventh Edition M7-A7”

S. aureus = tested on: S. aureus
Description: as §1, §2

Ps. aeruginosa = tested on: Ps. aeruginosa
Description: as §1, §2

[1] = Ps. aeruginosa, CLSI broth dilution
[2] = P. acnes, values marked * in mg/ml

Compound	Minimum Inhibitory Concentration, antimicrobial activity, S. aureus (S. aureus)	further results
N=C(N)NCCC[C@H](NC(=O)[C@H](CCCNC(=N)N)NC(=O)[C@H](CCCNC(=N)N)NC(=O)[C@H](CCCNC(=N)N)NC(=O)[C@H](CCCNC(=N)N)NC(=O)[C@H](CCCNC(=N)N)NC(=O)[C@H](CCCNC(=N)N)NC(=O)[C@H](CCCNC(=N)N)NC(=O)[C@@H](N)CCCNC(=N)N)C(=O)O [NP316, RRRRRRRRR (SEQ ID NO: 12)]	–	Minimum Inhibitory Concentration, antimicrobial activity, P. acnes (P. acnes; P. acnes, CLSI broth dilution): 0.0313 mM
N=C(N)NCCC[C@H](NC(=O)[C@H](CCCNC(=N)N)NC(=O)[C@H](CCCNC(=N)N)NC(=O)[C@H](CCCNC(=N)N)NC(=O)[C@H](CCCNC(=N)N)NC(=O)[C@H](CCCNC(=N)N)NC(=O)[C@H](CCCNC(=N)N)NC(=O)[C@H](CCCNC(=N)N)NC(=O)[C@H](CCCNC(=N)N)NC(=O)[C@H](CCCNC(=N)N)NC(=O)[C@@H](N)CCCNC(=N)N)C(=O)O [NP317, RRRRRRRRRRR (SEQ ID NO: 13)]	0.25 mM	–
N=C(N)NCCC[C@H](NC(=O)[C@H](CCCNC(=N)N)NC(=O)[C@H](CCCNC(=N)N)NC(=O)[C@H](CCCNC(=N)N)NC(=O)[C@H](CCCNC(=N)N)NC(=O)[C@H](CCCNC(=N)N)NC(=O)[C@H](CCCNC(=N)N)NC(=O)[C@H](CCCNC(=N)N)NC(=O)[C@H](CCCNC(=N)N)NC(=O)[C@H](CCCNC(=N)N)NC(=O)[C@H](CCCNC(=N)N)NC(=O)[C@H](CCCNC(=N)N)NC(=O)[C@@H](N)CCCNC(=N)N)C(=O)O [NP318, RRRRRRRRRRRRR (SEQ ID NO: 14)]	0.125 mM	Minimum Inhibitory Concentration, antimicrobial activity, P. acnes (P. acnes): <0.0156 mM
N=C(N)NCCC[C@H](NC(=O)[C@H](CCCNC(=N)N)NC(=O)[C@H](CCCNC(=N)N)NC(=O)[C@H](CCCNC(=N)N)NC(=O)[C@H](CCCNC(=N)N)NC(=O)[C@H](CCCNC(=N)N)NC(=O)[C@H](CCCNC(=N)N)NC(=O)[C@H](CCCNC(=N)N)NC(=O)[C@H](CCCNC(=N)N)NC(=O)[C@H](CCCNC(=N)N)NC(=O)[C@H](CCCNC(=N)N)NC(=O)[C@H](CCCNC(=N)N)NC(=O)[C@@H](N)CCCNC(=N)N)C(=O)O [NP337, RRRRRRRRRRRRR (SEQ ID NO: 31)]	–	Minimum Inhibitory Concentration, antimicrobial activity, P. acnes (P. acnes): 0.0025 mM
CC(=O)N[C@@H](CCCNC(=N)N)C(=O)N[C@@H](CCCNC(=N)N)C(=O)N[C@@H](CCCNC(=N)N)C(=O)N[C@@H](CCCNC(=N)N)C(=O)N[C@@H](CCCNC(=N)N)C(=O)N[C@@H](CCCNC(=N)N)C(=O)N[C@@H](CCCNC(=N)N)C(=O)N[C@@H](CCCNC(=N)N)C(=O)N[C@@H](CCCNC(=N)N)C(=O)N[C@@H](CCCNC(=N)N)C(=O)N[C@@H](CCCNC(=N)N)C(=O)N[C@@H](CCCNC(=N)N)C(=O)N[C@@H](CCCNC(=N)N)C(N)=O [NP338]	–	Minimum Inhibitory Concentration, antimicrobial activity, P. acnes (P. acnes): 0.005 mM; Minimum Inhibitory Concentration, antimicrobial activity, Ps. aeruginosa (Ps. aeruginosa; [1]): 0.0625 mM
N=C(N)NCCC[C@@H](N)C(=O)N[C@H](CCCNC(=N)N)C(=O)N[C@H](CCCNC(=N)N)C(=O)N[C@H](CCCNC(=N)N)C(=O)N[C@H](CCCNC(=N)N)C(=O)N[C@H](CCCNC(=N)N)C(=O)N[C@H](CCCNC(=N)N)C(=O)N[C@H](CCCNC(=N)N)C(=O)N[C@H](CCCNC(=N)N)C(=O)N[C@H](CCCNC(=N)N)C(=O)N[C@H](CCCNC(=N)N)C(=O)N[C@H](CCCNC(=N)N)C(=O)N[C@H](CCCNC(=N)N)C(=O)O [NP339, dRdRdRdRdRdRdRdRdRdRdRdRdR (SEQ ID NO: 31)]	0.25 mM	Minimum Inhibitory Concentration, antimicrobial activity, P. acnes (P. acnes): 0.02 mM; Minimum Inhibitory Concentration, antimicrobial activity, Ps. aeruginosa (Ps. aeruginosa; [1]): 0.0625 mM
N=C(N)NCCC[C@@H](N)C(=O)N[C@H](CCCNC(=N)N)C(=O)N[C@H](CCCNC(=N)N)C(=O)N[C@H](CCCNC(=N)N)C(=O)N[C@H](CCCNC(=N)N)C(=O)N[C@H](CCCNC(=N)N)C(=O)N[C@H](CCCNC(=N)N)C(=O)N[C@H](CCCNC(=N)N)C(=O)N[C@H](CCCNC(=N)N)C(=O)N[C@H](CCCNC(=N)N)C(=O)N[C@H](CCCNC(=N)N)C(=O)N[C@H](CCCNC(=N)N)C(=O)N[C@H](CCCNC(=N)N)C(N)=O [NP341, dRdRdRdRdRdRdRdRdRdRdRdRdR—CONH (SEQ ID NO: 31)]	0.125 mM	–
N=C(N)NCCC[C@H](NC(=O)[C@H](CCCNC(=N)N)NC(=O)[C@H](CCCNC(=N)N)NC(=O)[C@H](CCCNC(=N)N)NC(=O)[C@H](CCCNC(=N)N)NC(=O)[C@H](CCCNC(=N)N)NC(=O)[C@H](CCCNC(=N)N)NC(=O)[C@H](CCCNC(=N)N)NC(=O)[C@H](CCCNC(=N)N)NC(=O)[C@H](CCCNC(=N)N)NC(=O)[C@@H](N)CCCNC(=N)N)C(=O)O [NP350, RRRRRRRRRRR (SEQ ID NO: 13)]	–	Minimum Inhibitory Concentration, antimicrobial activity, Ps. aeruginosa (Ps. aeruginosa): 0.125 mM
N=C(N)NCCC[C@H](NC(=O)[C@H](CCCNC(=N)N)NC(=O)[C@H](CCCNC(=N)N)NC(=O)[C@H](CCCNC(=N)N)NC(=O)[C@H](CCCNC(=N)N)NC(=O)[C@H](CCCNC(=N)N)NC(=O)[C@H](CCCNC(=N)N)NC(=O)[C@H](CCCNC(=N)N)NC(=O)[C@H](CCCNC(=N)N)NC(=O)[C@H](CCCNC(=N)N)NC(=O)[C@H](CCCNC(=N)N)NC(=O)[C@H](CCCNC(=N)N)NC(=O)[C@@H](N)CCCNC(=N)N)C(=O)O [NP351, RRRRRRRRRRRRR (SEQ ID NO: 14)]	–	Minimum Inhibitory Concentration, antimicrobial activity, Ps. aeruginosa (Ps. aeruginosa; [1]): 0.125 mM
(H)n, n = 32-161 [NP131]	–	Minimum Inhibitory Concentration, antimicrobial activity, P. acnes (P. acnes; [2]): >0.1* mg/ml; Minimum Inhibitory Concentration, antimicrobial activity, S. aureus (S. aureus; S. aureus, values marked * in mg/ml): >2* mg/ml
(H)n, n = >32 [NP132]	–	Minimum Inhibitory Concentration, antimicrobial activity, P. acnes (P. acnes; [2]): 0.1* mg/ml
(K)n, n = 3-14 [NP112]	–	Minimum Inhibitory Concentration, antimicrobial activity, P. acnes (P. acnes; [2]): 0.1* mg/ml
(K)n, n = 7-34 [NP106]	–	Minimum Inhibitory Concentration, antimicrobial activity, P. acnes (P. acnes; [2]): 0.125* mg/ml
(R)n, n = 86-402 [NP122]	–	Minimum Inhibitory Concentration, antimicrobial activity, P. acnes (P. acnes; [2]): 0.01* mg/ml
(R)n, n = >402 [NP123]	–	Minimum Inhibitory Concentration, antimicrobial activity, P. acnes (P. acnes; [2]): 0.01* mg/ml
GKKEKPEKKVKK [NP331, GKKEKPEKKVKK (SEQ ID NO: 25)]	>2 mM	–
KKKDKVKK [NP334, KKKDKVKK (SEQ ID NO: 28)]	>2 mM	–
KKKKKEGKKQEKMLD [NP333]	>2 mM	–
KKKKKKKKK [NP345, KKKKKKKKK (SEQ ID NO: 33)]	–	Minimum Inhibitory Concentration, antimicrobial activity, P. acnes (P. acnes): 2.5 mM
KKKKKKKKKKKKKKK [NP348]	–	Minimum Inhibitory Concentration, antimicrobial activity, P. acnes (P. acnes; P. acnes, CLSI broth dilution): 0.0625 mM; Minimum Inhibitory Concentration, antimicrobial activity, S. aureus (S. aureus; S. aureus, CLSI broth dilution): 0.25 mM
KLTKPKPQAESKKKKK [NP332]	>2 mM	–

Compound	Minimum Inhibitory Concentration, antimicrobial activity, S. aureus (S. aureus)	further results
KVRQGTLKKAR [NP335, KVRQGTLKKAR (SEQ ID NO: 29)]	>2 mM	–
PKTKAKAKAKKGKGKD [NP336]	>2 mM	–
RRRRVVRRRR [NP310, RRRRVVRRRR (SEQ ID NO: 10)]	>2 mM	Minimum Inhibitory Concentration, antimicrobial activity, P. acnes (P. acnes): 0.5 mM
RRRVRRR [NP306, RRRVRRR (SEQ ID NO: 6)]	>2 mM	–
RRRVVRRR [NP308, RRRVVRRR (SEQ ID NO: 8)]	>2 mM	–
RRRWRRR [NP325, RRRWRRR (SEQ ID NO: 21)]	>2 mM	–
RRVRR [NP303, RRVRR (SEQ ID NO: 3)]	>2 mM	–
RRVRRVRR [NP309, RRVRRVRR (SEQ ID NO: 9)]	–	Minimum Inhibitory Concentration, antimicrobial activity, P. acnes (P. acnes): 1 mM
RRVRVR [NP304, RRVRVR (SEQ ID NO: 4)]	>2 mM	–
RRVRVRR [NP307, RRVRVRR (SEQ ID NO: 7)]	>2 mM	–
RRVVR [NP302, RRVVR (SEQ ID NO: 2)]	>2 mM	–
RRVVRR [NP305, RRVVRR (SEQ ID NO: 5)]	>2 mM	–
RRVVRRVVRR [NP311, RRVVRRVVRR (SEQ ID NO: 11)]	>2 mM	Minimum Inhibitory Concentration, antimicrobial activity, P. acnes (P. acnes): 2 mM
RRWRR [NP322, RRWRR (SEQ ID NO: 18)]	>2 mM	–
RRWRRWRR [NP328, RRWRRWRR (SEQ ID NO: 24)]	>2 mM	–
RRWRWR [NP323, RRWRWR (SEQ ID NO: 19)]	>2 mM	–
RRWRWRR [NP326, RRWRWRR (SEQ ID NO: 22)]	>2 mM	–
RRWWR [NP321, RRWWR (SEQ ID NO: 17)]	>2 mM	–
RRWWRR [NP324, RRWWRR (SEQ ID NO: 20)]	1 mM	–
RVRVR [NP301, RVRVR (SEQ ID NO: 1)]	>2 mM	–
RWRWR [NP320, RWRWR (SEQ ID NO: 16)]	>2 mM	–

From patent publication US9371363B2, “Peptides and their use” (Novabiotics Limited, priority 2007, dated 2016)
